Measured values taken from PubChem BioAssay AID624367 (Broad Institute, 2012).
The source made the active and inactive calls. The rule behind the calls is not given here.

Experiment: lymphoblastoid cell cytotoxicity, dose response, cytotoxicity control, plate reader, dry powder, set 2 (AID 624367)
Details: Lymphoblastoid cell line (LCL) cytotoxicity, plate reader; at 30 µM (top of the series)

| Compound | activity change, negative = cytotoxicity |
| --- | --- |
| C[C@H](NC(=O)C[C@@H]1C=C[C@H](NC(=O)Cc2ccccn2)[C@H](CO)O1)c1ccccc1 | 6.34% (inactive) |

Same assay, conditions: Lymphoblastoid cell line (LCL) cytotoxicity, plate reader; at 35 µM (top of the series)

| Compound | activity change, negative = cytotoxicity |
| --- | --- |
| C[C@@H](NC(=O)C[C@H]1C[C@@H]2c3cc(NC(=O)c4cccnc4)ccc3O[C@@H]2[C@@H](CO)O1)c1ccccc1 | -0.579% (inactive) |
| CO[C@H]1CN(C)C(=O)c2ccc(NC(=O)C3CC3)cc2OC[C@H](C)N(C(=O)c2ccccn2)C[C@H]1C | -0.57% (inactive) |
| Cc1noc(C)c1S(=O)(=O)Nc1ccc2c(c1)C(=O)N([C@H](C)CO)C[C@@H](C)[C@H](CN(C)Cc1ccc(C(F)(F)F)cc1)OCCCC[C@H](C)O2 | -6.93% (inactive) |
| O=C(Cc1ccccn1)NCC[C@H]1CC[C@H](NC(=O)Nc2ccc(Cl)cc2)[C@H](CO)O1 | 7.55% (inactive) |
| N#C[C@H]1[C@H](c2ccc(C#Cc3ccccc3F)cc2)[C@@H](CO)N1C(=O)c1cccnc1 | 3.23% (inactive) |
| C[C@H](CO)N1C[C@H](C)[C@@H](CN(C)C(=O)Nc2ccc(F)cc2)OCc2ccccc2-c2c(n(C)c3ccccc23)C1=O | -2.81% (inactive) |
| Cc1cc(C(=O)Nc2ccc3c(c2)C(=O)N(C)[C@@H]2CC[C@@H](CC(=O)NCc4ccc(-c5ccccc5)cc4)O[C@H]2CO3)no1 | -5.25% (inactive) |
| N#C[C@@H]1[C@H](c2ccc(C#Cc3ccccc3F)cc2)[C@@H](CO)N1C(=O)c1cccnc1 | -5.47% (inactive) |
| Cc1cc(C(=O)Nc2ccc3c(c2)C(=O)N(C)[C@H]2CC[C@@H](CC(=O)NCc4ccc(-c5ccccc5)cc4)O[C@H]2CO3)no1 | -17.8% (inactive) |
| CC(C)NC(=O)N1Cc2cc(C(=O)NC3Cc4ccccc4C3)nc(-c3cccc(-c4cccnc4)c3)c2[C@H]1CCO | -2.11% (inactive) |
| O=C(Cc1ccccn1)NCC[C@@H]1CC[C@@H](NC(=O)Nc2ccc(Cl)cc2)[C@H](CO)O1 | -2.4% (inactive) |
| O=C(C[C@@H]1CC[C@@H]2[C@H](COC[C@H](O)CN2Cc2ccc3c(c2)OCO3)O1)Nc1ccc(-c2ccccc2)cc1 | -4.84% (inactive) |
| C[C@H]1CN([C@@H](C)CO)C(=O)Cc2cc(NC(=O)Cc3ccccc3)ccc2O[C@@H]1CN(C)Cc1ccc(C(F)(F)F)cc1 | -5.68% (inactive) |
| O=C(C[C@@H]1C[C@H]2c3cc(NC(=O)c4ccc5c(c4)OCO5)ccc3O[C@H]2[C@H](CO)O1)NC1CCCCC1 | -16.7% (inactive) |
| COc1ccccc1C#Cc1cnc2c(c1)C(=O)N([C@H](C)CO)C[C@H](C)[C@@H](CN(C)C(=O)c1ccc3c(c1)OCO3)O2 | 8.25% (inactive) |
| COc1cccc(S(=O)(=O)N(C)C[C@H]2Oc3cc(C4=CCCCC4)ccc3S(=O)(=O)N([C@@H](C)CO)C[C@@H]2C)c1 | 4.96% (inactive) |
| COc1ccccc1CNC(=O)C[C@@H]1C[C@H]2c3cc(NC(=O)c4ccc5c(c4)OCO5)ccc3O[C@H]2[C@H](CO)O1 | -4.54% (inactive) |
| Cc1noc(C)c1S(=O)(=O)Nc1ccc2c(c1)C(=O)N([C@H](C)CO)C[C@@H](C)[C@H](CN(C)Cc1ccc(C(F)(F)F)cc1)OCCCC[C@@H](C)O2 | -9.24% (inactive) |
| O=C(Cc1ccccn1)NCC[C@@H]1CC[C@@H](NC(=O)Nc2ccc(Cl)cc2)[C@@H](CO)O1 | 1.2% (inactive) |
| C[C@H](CO)N1C[C@H](C)[C@@H](CN(C)Cc2ccc(C(F)(F)F)cc2)Oc2ccc(NC(=O)Cc3ccccc3)cc2CC1=O | -0.272% (inactive) |
| COc1ccccc1C#Cc1ccc2c(c1)O[C@H](CN(C)Cc1cccnc1)[C@H](C)CN([C@@H](C)CO)S2(=O)=O | -1.62% (inactive) |
| C[C@@H]1CN([C@@H](C)CO)C(=O)c2c(c3ccccc3n2C)-c2ccccc2CO[C@H]1CN(C)C(=O)Nc1ccc(F)cc1 | 3.34% (inactive) |
| O=C(Cc1ccccn1)NCC[C@H]1CC[C@@H](NC(=O)Nc2ccc(Cl)cc2)[C@@H](CO)O1 | -2.19% (inactive) |
